Results from PMC5339268, “Ganoderic Acid A Metabolites and Their Metabolic Kinetics” (Frontiers in Pharmacology, 2017).
Like-named read-outs stand apart in the source and are kept apart here. Values belong to the compound of their own block, whether it stands above or below them.

Experiments:
CYP3A [1] = assay: Effect of CYP inhibitors on formation of GAA metabolites in RLMs; format: in vitro ADME; conditions: rat, rat liver microsomes (RLMs), probe GAA (10 μM), formation of metabolite M2, RLMs 0.25 mg/ml, ketoconazole 10 μM
Procedure: (§1) GAA (10 μM) was incubated with 0.25 mg/ml RLMs or HLMs in the incubation system as described in Section Formation Kinetics of the Metabolites M2 and M4, in the present or absent of the following CYP enzymes inhibitors, 10 μM α- naphthoflavone (for CYP1A2), 100 μM ticlopidine (for CYP2C19), 10 μM quinidine (for CYP2D), 10 μM ketoconazole (for CYP3A), 100 μM fluconazole (for CYP2C9) and 100 μM diethyldithiocarbamate (for CYP2E1), respectively. The M2 and M4 formation rates in the present and absent of inhibitors were compared. The percentage of inhibition was calculated. Each of the incubations was performed in triplicate.

CYP3A [2] = assay: Effect of CYP inhibitors on formation of GAA metabolites in HLMs; format: in vitro ADME; conditions: human, human liver microsomes (HLMs), probe GAA (10 μM), ketoconazole 10 μM
Procedure: as §1

EL4 syngeneic mice = test system: EL4 syngeneic mice; parameters: method as in Radwan et al., 2015; conditions: ref Radwan et al., 2015, cited from earlier work
HepG2 cells = test system: HepG2 cells; parameters: method as in Yao et al., 2012; conditions: ref Yao et al., 2012; cited from earlier work
[3] = test system: rat liver microsomes (RLMs); assay: In vitro metabolite identification, GAA incubated with RLMs; conditions: for Detected resource 4, RLMs: 100 μM GAA, 1.0 mg protein/ml RLMs, NADPH and UDPGA, 37°C, 1 h
Procedure: (§2) For in vitro metabolites identification, the enzyme incubation was performed in a medium containing 1.0 mg protein /ml RLMs or HLMs, 100 μM of GAA, 3.3 mM of MgCl2, 3.0 mM of NADPH, 3.0 mM of UDPGA and 100 mM of sodium phosphate buffer (pH 7.4). The total volume was 500 μl. The metabolism reaction was initiated by adding NADPH and UDPGA after 10 min preincubation at 37°C. The reaction was maintained at 37°C for 1 h and terminated by adding with 500 μl of ice-cold acetonitrile. The mixture was centrifuged at 20,000 g for 15 min, and 10 μl of the supernatant was directly injected for HPLC-DAD-MS/MS assay. Control samples were prepared as described above by using inactivated enzymes in the incubation system. Each of the incubations was performed in duplicate.
(§3) The identification of metabolites were conducted by a HPLC-DAD-MS/MS system equipped with an Agilent 1,260 HPLC system (Agilent Technologies, Santa Clara, CA, USA), 1,260 diode array detector (DAD) and 4,500 Q-Trap mass spectrometer with electrospray ionization source (AB SCIEX, Framingham, MA, USA). Chromatographic separation was performed on a C18 column (100 × 4.6 mm, 2.4 μm, BDS hypersil, Thermo, PA) maintained at 40°C. The mobile phase consisted of acetonitrile (A) and 0.1% formic acid aqueous solution (B) with following gradient elution at a flow rate of 0.40 ml/min: 0–10 min, 20–35% A; 10–20 min, 35% A; 20–25 min, 35–65% A; 25–30 min, 65% A; 30–35 min, 65–20% A; and 35–45 min, 20% A. The DAD spectral data was collected from 190 to 400 nm. The injection volume of all the tested samples was 10 μl. Mass data were acquired in negative mode under the following conditions, ion spray voltage −4,500 V, ion source temperature 450°C, curtain gas 10 psi, nebulizer gas 60 psi and auxiliary gas 60 psi. Data were collected using Analyst 1.6.2 (Applied Biosystems) in both first quadrupole (Q1) mass scan mode and multiple reaction monitoring (MRM) independent data acquisition (IDA) mode using enhanced product ion scans (EPI) and enhanced resolution (ER) in the ion trap mode.

[4] = test system: human liver microsomes (HLMs); assay: In vitro metabolite identification, GAA incubated with HLMs; conditions: for Detected resource 5, HLMs: 100 μM GAA, 1.0 mg protein/ml HLMs, NADPH and UDPGA, 37°C, 1 h
Procedure: as §2, §3

[5] = GAA metabolite identification in rat bile, plasma and urine after intravenous administration (HPLC-DAD-MS/MS); conditions: for Detected resource 1, rat bile: rat bile 0–4 h after i.v. GAA 20 mg/kg; for Detected resource 2, rat plasma: rat plasma 5 and 30 min after i.v. GAA 20 mg/kg; for Detected resource 3, rat urine: rat urine 0–4 h after i.v. GAA 20 mg/kg
Procedure: Male Sprague-Dawley rats (200 ± 20 g) were supplied by Beijing Vital Laboratory Animal Technology (Beijing, China). The animal experiment was approved by the Animal Ethics Committee at the Institute of Medicinal Plant Development, Chinese Academy of Medical Sciences. […] On the day before the experiment, the rats were suffered with light surgeries. Under anesthesia by an intraperitoneal dose of 10% chloral hydrate at 3.50 ml/kg, a polyethylene catheter (0.50 mm ID, 1.00 mm OD, Portex Limited, Hythe, Kent, England) was cannulated into the right jugular vein for intravenous drug administration and blood collection, and another catheter (0.28 mm ID, 0.61 mm OD, Portex Limited, Hythe, Kent, England) was cannulated into the bile fistul for bile collection. After surgery, the rats were placed individually in metabolism cages and allowed to recover for at least 24 h. The rats were fasted over night with free access to water prior to drug administration.
GAA (25 mg) was dissolved in 500 μl of physiological saline containing 2% sodium carbonate and diluted with physiological saline to make the volume of 5 ml (Cheng C.-R. et al., [2013]). The solution was given to rats (n = 5) intravenously at 20 mg/kg through the jugular vein catheter. After dosing and blood sample collection, 0.2 ml of normal saline with 20 units of heparin was injected into the body through the catheter to flush the catheter and prevent blood coagulation.
Rats were held in metabolism cages, blood was collected into heparinized tubes from the jugular vein before (blank) and at 5 and 30 min post dosing, and then centrifuged at 1,500 g for 10 min for plasma separation. At the same time, bile and urine samples were collected before (blank) and over the period of 0–4 h post dosing. All of the collected blank plasma, blank bile, blank urine, dosing plasma, dosing bile or dosing urine from five rats were pooled together respectively and stored at −20°C until assay.
For plasma, an aliquot of 200 μl sample was mixed with 20 μl HCl solution (1 M), and then extracted with 1.5 ml of ethyl acetate by vortex-mixing for 10 min. The ethyl acetate layer was collected and concentrated to dryness by a vacuum concentrator. The residue was reconstituted in 100 μl 80% methanol and centrifuged at 20,000 g for 15 min. The supernatant was collected for HPLC-DAD-MS/MS assay. For bile, an aliquot of 150 μl sample was mixed with 150 μl 80% methanol and 10 μl 5% formic acid, and then centrifuged at 20,000 g for 15 min. The supernatant was collected for HPLC-DAD-MS/MS assay. For urine, an aliquot of 2 ml sample was loaded on a pretreated ODS-C18 cartridge (Agilent AccuBOND, 500 mg). After washing with 5 ml of water, the cartridge was eluted with 10 ml of methanol. The methanol eluate was collected and concentrated to dryness by a vacuum concentrator at 37°C. The residue was reconstituted in 200 μl 80% methanol and centrifuged at 20,000 g for 15 min, and the supernatant was collected for HPLC-DAD-MS/MS assay.
The identification of metabolites were conducted by a HPLC-DAD-MS/MS system equipped with an Agilent 1,260 HPLC system (Agilent Technologies, Santa Clara, CA, USA), 1,260 diode array detector (DAD) and 4,500 Q-Trap mass spectrometer with electrospray ionization source (AB SCIEX, Framingham, MA, USA). Chromatographic separation was performed on a C18 column (100 × 4.6 mm, 2.4 μm, BDS hypersil, Thermo, PA) maintained at 40°C. The mobile phase consisted of acetonitrile (A) and 0.1% formic acid aqueous solution (B) with following gradient elution at a flow rate of 0.40 ml/min: 0–10 min, 20–35% A; 10–20 min, 35% A; 20–25 min, 35–65% A; 25–30 min, 65% A; 30–35 min, 65–20% A; and 35–45 min, 20% A. The DAD spectral data was collected from 190 to 400 nm. The injection volume of all the tested samples was 10 μl. Mass data were acquired in negative mode under the following conditions, ion spray voltage −4,500 V, ion source temperature 450°C, curtain gas 10 psi, nebulizer gas 60 psi and auxiliary gas 60 psi.

[6] = test system: rat liver microsomes (RLMs); assay: Formation kinetics of the metabolites M2 and M4 in RLMs; format: in vitro ADME
Procedure: Each of the incubations was performed in triplicate.

[7] = test system: rat liver microsomes (RLMs)
Procedure: as §2, §3

[8] = test system: human liver microsomes (HLMs)
Procedure: as §2, §3

[9] = test system: human liver microsomes (HLMs); conditions: for Vmax of metabolite formation from GAA: HLMs 0.25 mg protein/ml, GAA 1–50 μM, 30 min
Procedure: The formation kinetics of the two main reduction metabolites M2 (GAC2) and M4 (7β,15-dihydroxy-3,11,23-trioxo-lanost-26-oic acid) were determined. The incubations were performed in a medium (100 μl) containing 0.25 mg protein /ml RLMs or HLMs, different concentrations of GAA (1–50 μM), 3.3 mM of MgCl2, 3.0 mM of NADPH and 100 mM of sodium phosphate buffer (pH 7.4). After 10 min of preincubation, GAA at each concentration was incubated with RLMs and HLMs for 5 and 30 min, respectively. The reactions were terminated by adding with 100 μl of ice-cold acetonitrile containing 2 μM GLA used as internal standard (IS). After centrifugation, metabolites in the mixture were analyzed by UFLC-MS/MS detection as described below. The metabolite formation rates vs. GAA concentrations were plotted to obtain the Michaelis-Menten constant (Km) and maximum velocity (Vmax) values of the metabolic reactions. Each of the incubations was performed in triplicate.
The kinetic parameters of GAA metabolism by RLMs or HLMs were calculated by fitting the data to the hyperbolic Michaelis-Menten model: V=Vmax×[S]/Km+[S]
Where Vmax is the maximal velocity of formation, S is the concentration of substrate, Km is the substrate concentration of half maximal velocity, and the intrinsic clearance (CLint) is calculated as Vmax/Km.

SMILES: CC(=O)N1CCN(c2ccc(OCC3COC(Cn4ccnc4)(c4ccc(Cl)cc4Cl)O3)cc2)CC1 (stereo not shown) [Ketoconazole, ketoconazole]
- inhibition at 10 μM (CYP3A [1]): 19.9%
- inhibition at 10 μM (CYP3A [2]; formation of metabolite M2, HLMs 0.25 mg/ml, read-out: inhibition of the formation of M2 in HLMs): 56%
- inhibition at 10 μM (CYP3A [2]; formation of metabolite M4, HLMs 0.25 mg/ml, read-out: inhibition of the formation of M4 in HLMs): 38.2%

SMILES: C[C@H](CC(=O)C[C@@H](C)[C@H]1C[C@H](O)[C@@]2(C)C3=C(C(=O)C[C@]12C)[C@@]1(C)CCC(=O)C(C)(C)[C@@H]1C[C@@H]3O)C(=O)O [Metabolite M0, Ganoderic acid A]
- tumor metastasis to the liver (EL4 syngeneic mice; EL4 syngeneic mice): decrease tumor metastasis to the liver
- survival of EL4 syngeneic mice (EL4 syngeneic mice): significantly prolong the survival
- chemosensitivity of HepG2 cells to Cisplatin (HepG2 cells): enhance chemosensitivity
- Detected resource 4, RLMs [3]: +
- Detected resource 5, HLMs [4]: +
- Detected resource 1, rat bile [5]: +
- Detected resource 2, rat plasma [5]: +
- Detected resource 3, rat urine [5]: +

SMILES: C[C@H](CC(=O)C[C@@H](C)[C@H]1C[C@H](O)[C@@]2(C)C3=C(C(=O)C[C@]12C)[C@@]1(C)CC[C@H](O)C(C)(C)[C@@H]1C[C@@H]3O)C(=O)O [Metabolite M2, Ganoderic acid C2]
- Vmax of metabolite formation from GAA ([6]; RLMs 0.25 mg protein/ml, GAA 1–50 μM, 5 min): 185.81 pmol/min/mg
- CLint by RLMs higher than by HLMs ([6]; ratio RLMs vs HLMs): 20 fold
- Vmax by RLMs higher than by HLMs ([6]; ratio RLMs vs HLMs): 6 fold
- relative abundance of metabolite in RLMs incubations [7]: most abundant
- metabolite detected in HLMs incubations [8]: detected
- relative abundance of metabolite in HLMs incubations [8]: abundant
- Vmax of metabolite formation from GAA [9]: 30.18 pmol/min/mg
- Clint of metabolite formation from GAA (Vmax/Km) ([9]; human, pH 7.4): 0.33 µL/min/mg
- Km of M2 higher than that of M4 ([9]; in HLMs, ratio M2 vs M4): 15 fold
- Km by HLMs higher than by RLMs ([9]; ratio HLMs vs RLMs): approximately 3 fold

SMILES: CC(CC(=O)CC(C)C1CC(O)C2(C)C3C(O)CC4C(C)(C)C(=O)CCC4(C)C3C(=O)CC12C)C(=O)O (stereo not drawn) [Metabolite M4, 7β,15-dihydroxy-3,11,23-trioxo-lanost-26-oic acid]
- metabolite found in RLMs incubations [7]: undetected
- metabolite detected in HLMs incubations [8]: detected
- relative abundance of metabolite in HLMs incubations [8]: abundant
- Vmax of metabolite formation from GAA [9]: 29.70 pmol/min/mg
- CLint of M4 formation higher than that of M2 ([9]; human, pH 7.4): 15 fold
- Clint of metabolite formation from GAA (Vmax/Km) ([9]; human, pH 7.4): 4.85 µL/min/mg

SMILES: CC(CC(=O)C[C@@H](C)[C@H]1C[C@H](O)[C@@]2(C)C3=C(C(=O)C[C@]12C)[C@@]1(C)CCC(=O)C(C)(C)[C@@H]1CC3=O)C(=O)O (stereo partly shown) [Metabolite M7, Ganoderic acid J]
- Detected resource 1, rat bile [5]: +
- Detected resource 2, rat plasma [5]: +
- Detected resource 3, rat urine [5]: +

SMILES: CC(CC(=O)CC(C)C1CC(O)C2(C)C3=C(C(=O)C(O)C12C)C1(C)CCC(=O)C(C)(C)C1CC3O)C(=O)O (stereo not shown) [Metabolite M9, 12-hydroxy ganoderic acid A]
- metabolite found in RLMs incubations [7]: found
- metabolite detected in HLMs incubations [8]: detected

SMILES: CC(CC(=O)CC(C)(O)C1CC(O)C2(C)C3=C(C(=O)CC12C)C1(C)CCC(=O)C(C)(C)C1CC3O)C(=O)O (stereo not shown) [Metabolite M11, 20-hydroxy ganoderic acid A]
- metabolite found in RLMs incubations [7]: found
- metabolite detected in HLMs incubations [8]: detected

SMILES: CC(CC(=O)CC(C)C1CC(O)C2(C)C3=C(C(=O)CC12C)C1(C)CCC(O)C(C)(CO)C1CC3O)C(=O)O (stereo not drawn) [Metabolite M13, 3,7β,15,28(29)-tetrahydroxy-11, 23-dioxo-lanost-8-en-26-oic acid]
- metabolite found in RLMs incubations [7]: detected

SMILES: CC(CC(=O)CC(C)C1CC(O)C2(C)C3=C(C(=O)C(O)C12C)C1(C)CCC(O)C(C)(C)C1CC3O)C(=O)O (stereo not shown) [Metabolite M15, 12-hydroxy ganoderic acid C2]
- metabolite found in RLMs incubations [7]: detected

SMILES: CC(CC(=O)C[C@@H](C)[C@H]1CC(=O)[C@@]2(C)C3=C(C(=O)C[C@]12C)[C@@]1(C)CC[C@H](O)C(C)(C)[C@@H]1C[C@@H]3O)C(=O)O (stereo partly shown) [Metabolite M18, Ganoderic acid B]
- Detected resource 1, rat bile [5]: +
- Detected resource 2, rat plasma [5]: +

- Detected resource 4, RLMs [3]: +
- metabolite found in RLMs incubations [3]: detected
- Detected resource 1, rat bile [5]: +
SMILES: C[C@H](CC(=O)C[C@@H](C)[C@H]1C[C@H](O)[C@@]2(C)C3=C(C(=O)C[C@]12C)[C@@]1(C)CC[C@H](O[C@@H]2O[C@H](C(=O)O)[C@@H](O)[C@H](O)[C@H]2O)C(C)(C)[C@@H]1C[C@@H]3O)C(=O)O [Metabolite M25, Ganoderic acid C2 3-O-glucuronide]

- Detected resource 1, rat bile [5]: +
SMILES: C[C@H](CC(=O)C[C@@H](C)[C@H]1C[C@H](O)[C@@]2(C)C3=C(C(=O)C[C@]12C)[C@@]1(C)CC[C@H](O)C(C)(C)[C@@H]1C[C@@H]3O[C@@H]1O[C@H](C(=O)O)[C@@H](O)[C@H](O)[C@H]1O)C(=O)O [Metabolite M26, Ganoderic acid C2 7-O-glucuronide]

- Detected resource 1, rat bile [5]: +
SMILES: C[C@H](CC(=O)C[C@@H](C)[C@H]1C[C@H](O[C@@H]2O[C@H](C(=O)O)[C@@H](O)[C@H](O)[C@H]2O)[C@@]2(C)C3=C(C(=O)C[C@]12C)[C@@]1(C)CC[C@H](O)C(C)(C)[C@@H]1C[C@@H]3O)C(=O)O [Metabolite M27, Ganoderic acid C2 15-O-glucuronide]

SMILES: C[C@H](CC(=O)C[C@@H](C)[C@H]1C[C@H](O)[C@@]2(C)C3=C(C(=O)C[C@]12C)[C@@]1(C)CCC(=O)C(C)(C)[C@@H]1C[C@@H]3O[C@@H]1O[C@H](C(=O)O)[C@@H](O)[C@H](O)[C@H]1O)C(=O)O [Metabolite M28, Ganoderic acid A 7-O-glucuronide]
- Detected resource 4, RLMs [3]: +
- metabolite found in RLMs incubations [3]: found
- Detected resource 5, HLMs [4]: +
- metabolite detected in HLMs incubations ([4]; HLMs incubations): detected
- Detected resource 1, rat bile [5]: +
- Detected resource 2, rat plasma [5]: +
- Detected resource 3, rat urine [5]: +

- Detected resource 1, rat bile [5]: +
- Detected resource 2, rat plasma [5]: +
- Detected resource 3, rat urine [5]: +
SMILES: CC(CC(=O)C[C@@H](C)[C@H]1CC(O)[C@@]2(C)C3=C(C(O[C@@H]4O[C@H](C(=O)O)[C@@H](O)[C@H](O)[C@H]4O)C[C@]12C)[C@@]1(C)CCC(=O)C(C)(C)[C@@H]1CC3=O)C(=O)O (stereo partly shown) [Metabolite M29, 15-hydroxy-3,7,23-trioxo-lanost-8-en-26-oic acid-11-O-glucuronide]

SMILES: C[C@H](CC(=O)C[C@@H](C)[C@H]1C[C@H](O[C@@H]2O[C@H](C(=O)O)[C@@H](O)[C@H](O)[C@H]2O)[C@@]2(C)C3=C(C(=O)C[C@]12C)[C@@]1(C)CCC(=O)C(C)(C)[C@@H]1C[C@@H]3O)C(=O)O [Metabolite M30, Ganoderic acid A 15-O-glucuronide]
- Detected resource 1, rat bile [5]: +
- Detected resource 3, rat urine [5]: +

- Detected resource 1, rat bile [5]: +
- Detected resource 3, rat urine [5]: +
SMILES: CC(CC(=O)C[C@@H](C)[C@H]1CC(O[C@@H]2O[C@H](C(=O)O)[C@@H](O)[C@H](O)[C@H]2O)[C@@]2(C)C3=C(C(O)C[C@]12C)[C@@]1(C)CCC(=O)C(C)(C)[C@@H]1CC3=O)C(=O)O (stereo partly shown) [Metabolite M31, 11-hydroxy-3,7,23-trioxo-lanost-8-en-26-oic acid-15-O-glucuronide]

SMILES: CC(CC(=O)CC(C)C1CC(O)C2(C)C3=C(C(=O)CC12C)C1(C)CCC(=O)C(C)(CO)C1CC3O)C(=O)O (stereo not shown) [Metabolite M35, 28(29)-hydroxy ganoderic acid A]
- metabolite detected in HLMs incubations [8]: detected
